From patent US4829086A, “Soft β-adrenergic blocking agents” (priority 1985, dated 1989)
Where two headings read alike, the source gives them in different places.

Experiments:
β-adrenergic [1] = assay: β-adrenergic activity of the acid metabolite (statement)
[2] = Hydrolytic rate in 0.01 N aqueous sodium hydroxide, pH 12.0; format: physicochemical; conditions: pH 12.0, ionic strength 0.10 M (NaCl), 27.3 ± 0.2° C.; for Observed pseudo first order hydrolytic rate constant k: 0.01 N NaOH, ± SEM; for half-life: 0.01 n naoh, pH 12, 0.01 N NaOH, read-out: Half-life t1/2
Experimental: (§1) Analytical Methods. A high pressure liquid chromatography (HPLC) method was developed for the determination of the rate constants. The chromatographic analysis was performed in a system consisting of Waters Associates Model 600-A Solvent Delivery System, Model U-6K Injector and Model 440 Dual Channel Absorbance Detector operated at 254 and 280 nm. A 30 cm×3.9 mm (internal diameter) reverse phase μBondpack C18 column (Waters Associates), operated at ambient temperature, was used for all separations. When plasma samples were analyzed, the column was protected with a 2.3 cm×3.9 mm (internal diameter) Guard Column (Waters) packed with μBondpack C18/Corasil packing material. The mobile phase used for the separation of 17 and its degradation product, 5, consisted of water, 1-hexane sulfonic acid in acetic acid (B-6 reagent, Waters), 0.1M triethanolamine and methanol (100:1:100:799). […] For the separation of compounds 10-16 and 18 and their degradation product 5, a mobile phase consisting of water, 1-hexane sulfonic acid in acetic acid (B-6 reagent, Waters), 0.1M triethanolamine and methanol (390:1:10:599) was used.
(§2) Determination of the Hydrolytic Rate Constants in Aqueous Solutions. A 0.01M phosphate buffer and 0.01N sodium hydroxide solution were prepared from freshly distilled deionized water. This ionic strength was maintained at 0.1M with sodium chloride. The pH of the phosphate buffer was determined at 37.0° C. with a pH meter standardized at this temperature. For determination of the hydrolytic rate constants, a fresh concentrated solution of the ester in methanol was added to the hydrolytic medium previously equilibrated to the desired temperature and mixed thoroughly to result in an initial concentration of about 5×10^-4 mol. liter^-1. All reactions were run under pseudo first order conditions. Samples of 25 μL were injected into the column at various time intervals and the pseudo first order rate constants were determined from disappearance of the compound by linear regression of natural logarithm of the peak height versus time plots. The half-life and standard error of the rate constant were calculated for each run.

[3] = Hydrolysis in 0.01M phosphate buffer pH 7.4; format: physicochemical; conditions: pH 7.4, 37° C.
Experimental: Analytical Methods. A high pressure liquid chromatography (HPLC) method was developed for the determination of the rate constants. The chromatographic analysis was performed in a system consisting of Waters Associates Model 600-A Solvent Delivery System, Model U-6K Injector and Model 440 Dual Channel Absorbance Detector operated at 254 and 280 nm. A 30 cm×3.9 mm (internal diameter) reverse phase μBondpack C18 column (Waters Associates), operated at ambient temperature, was used for all separations. When plasma samples were analyzed, the column was protected with a 2.3 cm×3.9 mm (internal diameter) Guard Column (Waters) packed with μBondpack C18/Corasil packing material. The mobile phase used for the separation of 17 and its degradation product, 5, consisted of water, 1-hexane sulfonic acid in acetic acid (B-6 reagent, Waters), 0.1M triethanolamine and methanol (100:1:100:799). […]
Determination of the Hydrolytic Rate Constants in Aqueous Solutions. […] The pH of the phosphate buffer was determined at 37.0° C. with a pH meter standardized at this temperature. […] Samples of 25 μL were injected into the column at various time intervals and the pseudo first order rate constants were determined from disappearance of the compound by linear regression of natural logarithm of the peak height versus time plots. The half-life and standard error of the rate constant were calculated for each run.

[4] = Enzymatic hydrolytic cleavage in human plasma; format: in vitro ADME; conditions: for Observed first order hydrolytic rate constant k: ± SEM; for half-life at 1000 µM: human, plasma
Experimental: as §1, §2
Determination of the Enzymatic Hydrolytic Cleavage Rates in Human Plasma. The freshly collected plasma used was obtained from the Civitan Regional Blood Center, Inc. (Gainesville, Fla.) and contained about 80% plasma diluted with anticoagulant citrate phosphate dextrose solution, U.S.P. The plasma was stored in a refrigerator and used within one week from the date it was collected.
A portion of 50 μL of a freshly prepared solution of the compound in methanol was added to 10 mL plasma, previously equilibrated at 37.0° C. in a water bath, and mixed thoroughly to result in an initial concentration of 1×10^-3 mol. liter^-1. One mL samples of plasma were withdrawn from the test medium, mixed immediately with 4.0 mL ice cold 95% v/v ethanol, centrifuged and the supernatant analyzed by HPLC. The first order hydrolytic rate constant was determined as before in the aqueous solutions and the results are listed in TABLE II below.

[5] = system: heart rate response to isoproterenol (β-adrenergic); assay: Heart rate response to isoproterenol in rats (initial drug screening); format: in vivo, male Spraque-Dawley rats; conditions: 6 mg/kg i.p.; for resting heart rate prior to administration of isoproterenol: mean ± SEM
Source text: (§3) Initial Drug Screening Protocol. Thirty-two male Spraque-Dawley rats (Blue Spruce Farms) initially weighing 300-450 gm were divided into seven different groups, each for a different drug to be tested: 12(n=4), 14(n=4), 17(n=5), 13(n=4) and 18(n=3), corresponding to the designated compounds 12, 14, 17, 13 and 18 (number of animals), respectively. The other two groups were controls (n=8, isoproterenol alone pretreated with carrier) and those treated with a known β-blocker, dl-propranolol (n=3). Ech animal was anesthetized with sodium pentobarbital (45 mg/kg) and the carotid artery was cannulated with PE-50 tubing. The cannula was subcutaneously threaded around the neck and exteriorized dorsally between the shoulder blades. Th cannula was filled with a heparin solution (300 μg/mL) and sealed with a solid 22 gauge stylet. The animals were housed in individual stainless steel cages, and two days were allowed for recovery from the surgery. Food and water were provided ad libitum. On the day of the experiment, the blood pressure and heart rate of each rat were monitored with a pressure transducer (Narco-Bio model P-1000) and the data recorded on a four-channel physiograph (Narco-Bio systems Marck IV). One hour was allowed as an equilibration period before any drugs were administered. All beta blockers were administered intraperitoneally at a dose of 6 mg/kg. Compounds 12 and 14 and dl-proranolol were dissolved in normal saline while compounds 13, 17 and 18 were dissolved in an ethanol: water solution (3:1). Depending on the trial, controls were administered the appropriate carrier. One hour after administration of the blocker, isoproterenol (Isuprel®, Wintrop Laboratories) was administered subcutaneously at a dose of 25 μg/kg. Blood pressures and heart rate also were recorded 3, 5, 10, 15, 20, 30, 45 and 60 minutes after isoproterenol administration. Both control and experimental animals were unrestrained and free moving in their home cage throughout the experiment. […] However, significant differences in the mean heart rate response amoung the 7 groups were observed: *p<0.005;**p<0.025. Comparisons between groups were made by the Newman-Keuls procedure with significance set at the 95% confidence interval. […] All data are shown as mean±standard error of the mean.

[6] = system: blood pressure response to isoproterenol; assay: Blood pressure response to isoproterenol in rats; format: in vivo, male Spraque-Dawley rats; conditions: 6 mg/kg i.p.; for mean change in blood pressure vs propranolol and compound 12-treated groups: isoproterenol 25 μg/kg s.c., FIG. 3
Source text: as §3
Symbols are the same as those described for FIG. 1. […] Data are shown as mean±standard error of the mean.

β-adrenergic [7] = conditions: major metabolite found in the urine; Borg et al; cited from earlier work
[8] = 37.0 ± 0.1° C., read-out: Half-life t1/2

## CC(C)NCC(O)COc1ccc(CC(=O)O)cc1 (centres unmarked) [Compound 5, 4-(2-Hydroxy-3-isopropylamino)propoxyphenylacetic acid]
β-adrenergic [1]
  activity of acid: inactive

## CCCOC(=O)Cc1ccc(OCC(O)CNC(C)C)cc1 (centres unmarked) [Compound 11, n-Propyl 4-(2-hydroxy-3-isopropylamino)propoxyphenylacetate]
[2]
  Observed pseudo first order hydrolytic rate constant k: 0.103 ± 0.001 min⁻¹
  half-life: 6.73 min
[3]
  half-life: 8.7 days
[4]; 37.0 ± 0.1° C.
  Observed first order hydrolytic rate constant k: 0.143 ± 0.005 min⁻¹
[4]; [8]
  half-life at 1000 µM: 4.86 min

## CCCCOC(=O)Cc1ccc(OCC(O)CNC(C)C)cc1 (centres unmarked) [Compound 13, n-Butyl 4-(2-hydroxy-3-isopropylamino)propoxyphenylacetate]
[2]
  Observed pseudo first order hydrolytic rate constant k: 9.27 ± 0.07 × 10^-2 min^-1
  half-life: 7.48 min
[4]; read-out: in vitro plasma half-life
  half-life at 1000 µM: ~1 min
[5]; FIG. 1
  control of heart rate 60 minutes after administration: effectively control the heart rate
[5]
  resting heart rate prior to administration of isoproterenol: 340±14 beat/minute
[6]
  mean change in blood pressure vs propranolol and compound 12-treated groups: significantly lower (p<0.15)
[6]; 10 minutes after isoproterenol
  mean change in blood pressure at 10 minutes vs compound 12-treated group: different from the compound 12-treated group
  mean change in blood pressure at 10 minutes vs compound 18 group: significantly different from the group treated with compound 18
[6]; 15 minutes after isoproterenol
  mean change in blood pressure at 15 minutes vs compound 12, 18 and control vehicle: significantly different from groups pretreated with compound 12, 18 and the control vehicle

## CC(C)NCC(O)COc1ccc(CC(=O)OCc2ccccc2)cc1 (centres unmarked) [Compound 14, Benzyl 4-(2-hydroxy-3-isopropylamino)propoxyphenylacetate]
[2]
  Observed pseudo first order hydrolytic rate constant k: 0.208 ± 0.004 min⁻¹
  half-life: 3.33 min
[3]
  half-life: 13 days
[4]; 37.0 ± 0.1° C.
  Observed first order hydrolytic rate constant k: 0.236 ± 0.007 min⁻¹
[4]; [8]
  half-life at 1000 µM: 2.93 min
[5]
  resting heart rate prior to administration of isoproterenol: 405±22 beat/minute
[6]
  mean change in blood pressure vs propranolol and compound 12-treated groups: significantly lower (p<0.15)

## CC(C)NCC(O)COc1ccc(CC(=O)O)cc1 (centres unmarked) [drawing 10]
β-adrenergic [7]
  activity as metabolite of metoprolol: inactive metabolite
